Measured values published in a melting point compilation (Tetko et al.).
Each block holds one compound with its values, some of them ahead of it.

melting point: 335 to 337 °C
Compound: Oc1nnc(C2c3ccccc3Oc3ccccc32)o1

melting point: 147 °C
Compound: CC(C)(C)c1ccc2cc3ccccc3cc2c1

melting point: 92 °C
Compound: COc1ccc(C(C)=O)cc1F

melting point: 264 to 267 °C
Compound: CCCc1c(O)ccc2c(=O)cc(C(=O)O)oc12

melting point: 58 to 59 °C
Compound: Cc1nn(-c2ccccc2)c(C)c1C(=O)Cl

melting point: 26 °C
Compound: O=C(Cl)c1cccc2ccccc12

melting point: 145 °C
Compound: O=[N+]([O-])c1cc([N+](=O)[O-])c(C=C(Cl)c2ccccc2)cc1C=C(Cl)c1ccccc1

melting point: 228 °C
Compound: O=C(O)C1C(c2ccccc2)C(C(=O)O)C1c1ccccc1 (centres undefined)

melting point: 223 to 224 °C
Compound: c1ccc(-c2nnc3n2CN(c2ccccn2)CS3)cc1

melting point: 290 °C
Compound: Nc1ccc2c(c1N)C(=O)c1ccccc1C2=O

melting point: 116 to 119 °C
Compound: CC(=O)Nc1ccc(Br)c(C(F)(F)F)c1

melting point: 148 to 149 °C
Compound: CC(=O)Nc1c(F)ccc([N+](=O)[O-])c1F

melting point: 200 °C
Compound: O=C(O)c1ccc(-c2ccco2)nc1

melting point: 110 °C
Compound: COc1cc2c(cc1OC)C(CCc1ccc(Cl)cc1)N(C)CC2 (centres undefined)

melting point: 210 °C
Compound: O=C1c2ccccc2C(=O)N1c1ccccc1

melting point: 170 to 180 °C
Compound: Nc1cccc(C(=O)O)c1C(=O)O

melting point: 157 °C
Compound: COc1ccc2c(c1O)CN1CCC(=O)CC1C2O (centres undefined)

melting point: 128 °C
Compound: CC(Br)C(Br)c1nc(O)n(-c2ccccc2)n1 (centres undefined)

melting point: 142 to 144 °C
Compound: CCCCOc1cc(C(=O)O)ccc1OC

melting point: 256 °C
Compound: Cc1cccc(C)c1NC(=O)c1cc(S(N)(=O)=O)c(Cl)cc1O

melting point: 168 to 169 °C
Compound: O=c1cc(-c2ccc(F)cc2)oc(-c2ccc(F)cc2)c1

melting point: 227 to 228 °C
Compound: CC(C)(C)c1cc(C(=S)Nc2ccccc2)cc(C(C)(C)C)c1O

melting point: 280 °C
Compound: Cc1cccc(/N=N/c2c(N)nn3c(C(F)(F)F)cc(=O)[nH]c23)c1

melting point: 152 °C
Compound: CC(C)(C)Oc1ccc(O)cc1

melting point: 109 to 111 °C
Compound: N#Cc1ccc(-c2ccsc2)cc1

melting point: 51 °C
Compound: COC(=O)c1ccc(C)c([N+](=O)[O-])c1

melting point: 171 °C
Compound: Ic1nccn1C(c1ccccc1)(c1ccccc1)c1ccccc1

The next lines start with the compound.

Compound: C=C1C(=CC=C2CCCC3(C)C2CCC3C(C)CCCC(C)(C)O)CC(O)CC1O (centres undefined)
melting point: 115 °C

Compound: O=C(O)c1cccc2c1OCCO2
melting point: 189 to 191 °C

Compound: C=C1C(=O)C23C4CC5C(C)(C)CCC(OC(C)=O)C5(C)C2C(OC(C)=O)CC1(OC(C)=O)C3OC(C)(C)O4 (centres undefined)
melting point: 221 °C

Compound: C=C(C)C(=O)OCCOC(=O)c1cc([N+](=O)[O-])cc([N+](=O)[O-])c1
melting point: 71 °C

Compound: CCSC(C)C
melting point: -122 °C

Compound: CC1=C(C(=O)OCCC(C)C)C(c2ccco2)NC(=O)N1 (centres undefined)
melting point: 176 °C

Compound: O=c1cc(CN2CCOCC2)c2cc(O)c(O)cc2o1
melting point: 232 °C

Compound: CN1CCC23c4c5ccc(OCCN6CCOCC6)c4OC2C(O)C=CC3C1C5 (centres undefined)
melting point: 91 °C

Compound: FC(Cl)=C(F)Cl
melting point: -130 °C

Compound: Cc1ccc(C#N)cc1F
melting point: 47 °C

Compound: O=C(NC(=O)C(F)(F)F)C(F)(F)F
melting point: 84 °C

Compound: COc1ccc(-c2noc(CCl)n2)cc1
melting point: 52 to 53 °C

Compound: Cc1ccc([N+](=O)[O-])c(N)c1
melting point: 108 °C

Compound: NS(=O)(=O)c1cc(C(=O)O)c(Cl)cc1Cl
melting point: 230 to 234 °C

Compound: COc1cc2c(cc1OC)C(=O)NCC2
melting point: 175 °C

Compound: O=C1NC2NC(=O)NC2N1 (centres undefined)
melting point: 300 °C

Compound: Cc1nccnc1C
melting point: 11 to 13 °C

Compound: Cc1cc2nnc(C(=O)O)c(C)n2n1
melting point: 166 to 168 °C

Compound: Cc1ccc(C)c2c1C(=O)N(C)C2=O
melting point: 170 °C

Compound: O=[N+]([O-])c1ncccc1Br
melting point: 104 °C

Compound: C=CCC(/C=C1\C(=O)C2(C)CCC1C2(C)C)(/C=C1\C(=O)C2(C)CCC1C2(C)C)C(=O)OCC (centres undefined)
melting point: 148 °C

Compound: CC(=O)NCO
melting point: 55 to 56 °C
